Results reported in publication PMC11409717, “Three separate pathways in Rhizobium leguminosarum maintain phosphatidylcholine biosynthesis, which is required for symbiotic nitrogen fixation with clover” (Applied and Environmental Microbiology, 2024).

Legend:
[1] = biological target: T1, Pcs (Rhizobium redzepovicii, UniProt A0AAW8P1U5); experiment: TLC of lipids from expressing E. coli cells, CuSO4 stain; format: cell-based; settings: endogenous CDP-DAG, 30 °C, 20 h
T1 construct: pET28b (NdeI/XhoI), expressed in E. coli BL21 (DE3) cells, not purified
T1 sequence (A0AAW8P1U5 1-242): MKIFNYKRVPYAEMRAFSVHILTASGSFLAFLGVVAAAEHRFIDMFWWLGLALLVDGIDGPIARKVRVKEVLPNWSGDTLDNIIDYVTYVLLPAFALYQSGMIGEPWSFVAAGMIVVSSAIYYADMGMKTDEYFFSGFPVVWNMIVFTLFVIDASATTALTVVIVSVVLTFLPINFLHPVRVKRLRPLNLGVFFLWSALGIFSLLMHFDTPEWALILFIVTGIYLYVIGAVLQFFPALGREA

[2] = biological target: T2, PmtR1 (Rhizobium leguminosarum, UniProt A0A2Z4YNE2); experiment: in vitro methylation, lipid extraction and TLC with CuSO4 stain; format: biochemical; settings: SAM; […] KH2PO4 pH […]; […] Triton X-100; […] °C, […] h; with or without PG or CL
T2 construct: gene DLJ82_4359; His-tagged, pET24b, E. coli BL21 (DE3), Ni-IDA and SEC; 23-25 kDa
T2 sequence (A0A2Z4YNE2 1-217): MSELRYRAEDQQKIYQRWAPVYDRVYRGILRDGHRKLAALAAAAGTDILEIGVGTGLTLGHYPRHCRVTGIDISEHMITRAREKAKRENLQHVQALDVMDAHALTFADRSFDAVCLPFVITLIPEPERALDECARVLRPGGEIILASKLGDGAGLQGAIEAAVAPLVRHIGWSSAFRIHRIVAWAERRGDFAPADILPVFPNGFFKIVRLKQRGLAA

[3] = biological target: T3, PmtS2 (Rhizobium leguminosarum, UniProt A0A2Z4YJT5); experiment: as above; format: biochemical; settings: SAM; […] KH2PO4 pH […]; […] Triton X-100; […] °C, […] h; with or without PG or CL
T3 construct: gene DLJ82_3306; His-tagged, synthetic gene in pET28b, E. coli BL21 (DE3), Ni-IDA and SEC, one unknown co-purifying protein; 23-25 kDa
T3 sequence (A0A2Z4YJT5 1-199): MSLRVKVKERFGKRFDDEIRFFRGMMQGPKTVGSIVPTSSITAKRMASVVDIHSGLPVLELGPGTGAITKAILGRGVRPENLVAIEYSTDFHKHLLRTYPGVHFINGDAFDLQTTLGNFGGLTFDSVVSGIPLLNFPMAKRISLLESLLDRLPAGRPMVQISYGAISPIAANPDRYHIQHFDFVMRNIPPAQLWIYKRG

[4] = biological target: T4, PmtS1 (Rhizobium leguminosarum, UniProt A0A2Z4YHW5); experiment: as above; format: biochemical; settings: SAM; […] KH2PO4 pH […]; […] Triton X-100; […] °C, […] h; with or without PG or CL
T4 construct: gene DLJ82_3449; His-tagged, pET24b, E. coli BL21 (DE3), Ni-IDA and buffer exchange only (partly pure); 23-25 kDa
T4 sequence (A0A2Z4YHW5 1-223): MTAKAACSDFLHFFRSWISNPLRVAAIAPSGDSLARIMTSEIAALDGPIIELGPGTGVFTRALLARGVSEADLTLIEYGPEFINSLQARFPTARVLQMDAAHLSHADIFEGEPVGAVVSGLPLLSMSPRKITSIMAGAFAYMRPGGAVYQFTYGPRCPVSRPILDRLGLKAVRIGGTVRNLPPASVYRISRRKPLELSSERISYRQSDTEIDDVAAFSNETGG

Structure (SMILES) | in vitro methylation, lipid extraction and TLC with CuSO4 stain [2] | in vitro methylation, lipid extraction and TLC with CuSO4 stain [3] | other results
CN(C)CCO [DMEA, 2-(dimethylamino)ethanol] | – | – | TLC of lipids from expressing E. coli cells, CuSO4 stain ([1]; M9 minimal medium with 1 mM DMEA): effectively converting these methylated substrates into MMPE and DMPE (Fig. 2B)
CCCCCCCC/C=C\CCCCCCCC(=O)OC[C@H](COP(=O)(O)OCCN(C)C)OC(=O)CCCCCCC/C=C\CCCCCCCC [DMPE, 1,2-dioleoyl-sn-glycero-3-phosphoethanolamine-N,N-dimethyl] | DMPE proved to be the most efficiently used substrate for PmtR1 | DMPE was methylated to PC, and this activity was stimulated by PG | –
CCCCCCCC/C=C\CCCCCCCC(=O)OC[C@H](COP(=O)(O)OCCNC)OC(=O)CCCCCCC/C=C\CCCCCCCC [MMPE, 1,2-dioleoyl-sn-glycero-3-phosphoethanolamine-N-methyl] | When MMPE was employed as a substrate, only barely detectable amounts of PC were synthesized | – | –
CCCCCCCC/C=C\CCCCCCCC(=O)OC[C@H](COP(=O)(O)OCCN)OC(=O)CCCCCCC/C=C\CCCCCCCC [PE, 1,2-dioleoyl-sn-glycero-3-phosphoethanolamine] | – | PE was methylated to MMPE and small amounts of DMPE and PC | in vitro methylation, lipid extraction and TLC with CuSO4 stain [4]: the conversion of only PE to MMPE by the purified protein (Fig. 4A)
C[N+](C)(C)CCO [choline] | – | – | TLC of lipids from expressing E. coli cells, CuSO4 stain ([1]; M9 minimal medium with 1 mM choline): PC formation was restored upon choline supplementation (Fig. 2B)
